Experimental data as given in patent US10935541B2 (priority 2014, dated 2021).
Entries after “also recorded” stand apart in the source; their conditions may differ. Read-outs that look alike come from different tables or passages of the source.

Tests used:
[1] = tested on: myotubes from muscle-only cultures; type: cell-based, rat
Protocol: Muscle-only control cultures were established in parallel to all co-cultures examined. These cultures were subjected to identical culture parameters minus the plating of ventral horn cells after 7 days in vitro.
(§1) Myotube contraction was recorded and characterized via measurement of cantilever deflection using an automated system. In this system, cantilevers supporting co-cultured myotubes and motoneurons were inserted into a transparent culture dish fitted into a modified upright Olympus BX51WI electrophysiology microscope. The culture dish was filled with NBActiv4 medium (+10 mM HEPES) to maintain the cells during the analysis. A heated culture dish system (Delta T, Bioptechs, Butler, Pa.) was incorporated into the stage to maintain the culture at 37° C. throughout the analysis.
(§2) Broad field electrical stimulation was first used to verify the contractile ability of the cultured myotubes. Cultures were subjected to a 3 V, 40 ms pulse at a frequency of 1 Hz, and the cantilevers were scanned for 5 seconds each to identify those with active myotubes. Across all experimental conditions, a successful contractile response was taken as any peak equal to or larger than 0.1 V.
(§3) The electrical stimulus was then switched off and the active cantilevers scanned again in order to observe the rate of spontaneous contraction. This condition was followed by bath application of 200 μM glutamate to stimulate motoneuron firing, and the cantilevers were again scanned for evidence of contractile activity. A second application of glutamate was made following addition of 12.5 μM D-tubocurarine (Sigma-Aldrich) to block neuromuscular transmission. The cantilevers were again scanned for contractile activity following this treatment. Finally, cantilevers were subjected to the same broad-field electrical stimulation as was used initially and scanned for contractile activity to verify that the treatments had not destroyed the contractile capability of the myotube or caused the cells to detach.
(§4) Conversion of photo-detector readings to cantilever deflection and myotube force were performed using a modified Stoney's equation (Wilson et al., 2010). Briefly, the photo-detector measured the changes in cantilever bending-induced laser deflection (reported in Volts) from which the deflection of the cantilever tip was calculated. Equations (1) and (2) are restated equations (see, e.g., Wilson et al., 2010) for cantilever tip deflection (δ) and stress produced by the myotube, assuming a uniform thick film the full width of the cantilever (σc). The system parameters used in these equations were the system-specific coefficient relating voltage to laser position on the photo-detector (Cdetector), the angle of the laser and detector relative to the plane of the cantilever (A), the elastic modulus of silicon (ESi), the thicknesses of the cantilever (tSi) and myotube (tf), poison's ratio of silicon (vSi), cantilever length (L), path length of laser from cantilever tip to detector (P), and the width of the cantilever (wsi).
Differences in force per contraction and in contraction frequency were measured for the three conditions: (i) Spontaneous activity, (ii) 200 μM glutamate, and (iii) 12.5 μM D-tubocurarine following glutamate. The differences were evaluated statistically using one-way repeated measures ANOVA (α=0.05) both for the muscle-only controls and for the motoneuron-myotube co-cultures. […]

[2] = tested on: co-cultures of primary rat muscle cells and motoneurons; type: cell-based; conditions: for average contraction frequency: co-culture 13 days in vitro, n=10, spontaneous 1.4 Hz; for contractile force (average peak force): mean ± SEM
Protocol: as §1
The automated system consisted of a Helium Neon laser beam that was automatically scanned across the tips of each cantilever at a 30° angle relative to the plane of the cantilever. A quadrant photo-detector module was also moved to detect the reflected beam. Four stepper motor-driven linear actuators attached to XY translational stages controlled the positions of the laser and photo-detector, with each unit mounted to an XY stage and requiring an actuator for the X and Y translation directions. A temperature-controlled stage was incorporated into the unit to maintain the cells at physiological temperature. Stainless steel electrodes were mounted inside the stage dish at a separation distance of 15 mm. To allow the system to produce field stimulation of myotubes when appropriate, the electrodes were connected to a pulse generator (A-M systems, Sequim, Wash.), which was capable of producing field stimulation pulses of varying intensity, frequency, and waveform.
as §2, §3, §4
Differences in force per contraction and in contraction frequency were measured for the three conditions: (i) Spontaneous activity, (ii) 200 μM glutamate, and (iii) 12.5 μM D-tubocurarine following glutamate. […]

neuromuscular junction = type: cell-based
ventral horn motoneurons = assay: Whole-cell patch-clamp recording of cultured motoneurons, response to glutamate; type: cell-based, rat
Excerpt: After 11-13 days in vitro, electrophysiological properties of ventral horn motoneurons were investigated using whole-cell patch-clamp recording techniques. Glass coverslips with cultured ventral horn cells were transferred to a recording chamber located on the stage of a Zeiss Axioscope 2FS Plus upright microscope. Motoneurons were identified visually under an infrared differential interference contrast (DIC) video-microscope. The largest multipolar cells (15-20 μm diameters) with bright somas were identified as motoneurons. Borosilicate glass patch pipettes (BF 150-86-10; Sutter Instrument Company) with a resistance of 6-10 MΩ were made using a Sutter P97 pipette puller (Sutter Instrument Company). Current-clamp and voltage-clamp recordings were made using a Multiclamp 700 A amplifier (Axon instruments). The pipette (intracellular) solution contained 1 mM EGTA, 140 mM K-gluconate, 2 mM MgCl2, 2 mM Na2ATP and 10 mM HEPES (pH 7.2). NBActiv4 medium plus 10 mM HEPES (pH 7.2) was used as the extracellular solution.
After the formation of a giga-ohm seal and membrane puncture, the cell capacitance was compensated. Signals were filtered at 3 kHz and sampled at 20 kHz using a Digidata 1322A interface (Axon Instruments). Data recording and analysis were performed with pClamp8 software (Axon Instruments). Membrane potentials were corrected by subtraction of a 15 mV tip potential, which was calculated using Axon's pClamp8 program. Depolarization-evoked inward and outward currents were examined in voltage-clamp mode. Depolarization-evoked action potentials were examined in current-clamp mode and induced using 1 second depolarizing current injections from a −70 mV holding potential. Action potentials elicited in response to 200 μM glutamate (an excitatory neurotransmitter) (Sigma-Aldrich) injection into the extracellular solution were likewise measured in current-clamp mode from a −70 mV holding potential.
Patch-clamp recordings verified the ability of the co-culture protocol to promote the maturation of electrically-active motoneurons after 11-13 days in culture. […]

## COc1cc2c3cc1Oc1cc(ccc1O)C[C@@H]1c4c(cc(OC)c(O)c4Oc4ccc(cc4)C[C@@H]3N(C)CC2)CC[N+]1(C)C [D-tubocurarine]
[1]; 12.5 μM D-tubocurarine, all control cases
  inhibitory effect on myotube contraction: no inhibitory effect on myotube contraction
[1]; 12.5 μM D-tubocurarine, muscle-only controls, p=0.04
  contraction frequency compared with frequency in response to glutamate: significant increase in contraction frequency
[2]; 12.5 μM D-tubocurarine with glutamate
  average contraction frequency: 1.4 Hz
[2]; 12.5 μM D-tubocurarine, co-culture
  contractile force compared with force in response to glutamate: not significantly different
[2]; after addition of 12.5 μM D-tubocurarine, co-culture
  contractile force (average peak force): 45.1 nN
[2]; all cases of glutamate increasing contraction frequency by at least 2 Hz
  effect on glutamate-increased contraction frequency: returned the contraction frequency to spontaneous levels

## α-Bungarotoxin
Neuromuscular junction
  effect on myotube contractions, stimulation from first chamber (myotube side): did not inhibit contraction; also recorded: contractions are still possible
  effect on myotube contractions, stimulation from second chamber (motoneuron side): less and less responsive; also recorded: decreased contraction of the myotubes

## N[C@@H](CCC(=O)O)C(=O)O [glutamate]
[1]; 200 μM glutamate, muscle-only controls
  largest increase in contraction frequency in response to glutamate: 0.85 Hz
[1]; 200 μM glutamate, muscle-only cultures, n=10
  effect on contraction frequency: did not significantly alter contraction frequency
[1]; glutamate, muscle-only controls, n=7, p=0.24
  effect on force generated by contracting myotubes: no effect
Ventral horn motoneurons; 200 μM glutamate bath application
  duration of motoneuron activity in response to glutamate: roughly 2.5 minutes
Ventral horn motoneurons; 200 μM glutamate, gap-free current-clamp, -70 mV holding potential, n=17
  response of motoneurons to bath application (membrane depolarization, action potentials): depolarization of the membrane and elicited action potentials in all motoneurons examined
Ventral horn motoneurons; second application of glutamate, n=3
  response of patched motoneurons to a second application: again depolarized the motoneuron membrane in all cells examined
[2]; 200 μM glutamate
  average contraction frequency: 4.9 Hz
[2]; glutamate, co-culture, n=10, p=0.60
  effect on force generated by contracting myotubes: no significant effect
[2]; glutamate-evoked contractions, 200 μM, co-culture, spontaneous 106.0 nN
  contractile force (average peak force): 67.4 nN
